Results on 1 compound are retold here after publication PMC8169660, “Flavin-dependent halogenases catalyze enantioselective olefin halocyclization” (Nature Communications, 2021).

This assay deals with T1, RebH variant 4V + S (Lentzea aerocolonigenes, UniProt Q8KHZ8, F111S/N470S, form not given).
T1 construct: evolved RebH variant 4V + S; pET28b in E. coli BL21(DE3) + pGro7, Ni-NTA purified (His-tagged)
The assay is described as follows: initial rates of bromolactonization, product 1a by UPLC. The assay is classed as biochemical. The conditions noted are these: NaBr (5 eq), NAD and FAD 100 uM, MBP-RebF 2.5 uM, glucose dehydrogenase, glucose 20 mM; 4V + S 20 uM; room temperature.

T1 sequence (Q8KHZ8 whole entry F111S/N470S, form open): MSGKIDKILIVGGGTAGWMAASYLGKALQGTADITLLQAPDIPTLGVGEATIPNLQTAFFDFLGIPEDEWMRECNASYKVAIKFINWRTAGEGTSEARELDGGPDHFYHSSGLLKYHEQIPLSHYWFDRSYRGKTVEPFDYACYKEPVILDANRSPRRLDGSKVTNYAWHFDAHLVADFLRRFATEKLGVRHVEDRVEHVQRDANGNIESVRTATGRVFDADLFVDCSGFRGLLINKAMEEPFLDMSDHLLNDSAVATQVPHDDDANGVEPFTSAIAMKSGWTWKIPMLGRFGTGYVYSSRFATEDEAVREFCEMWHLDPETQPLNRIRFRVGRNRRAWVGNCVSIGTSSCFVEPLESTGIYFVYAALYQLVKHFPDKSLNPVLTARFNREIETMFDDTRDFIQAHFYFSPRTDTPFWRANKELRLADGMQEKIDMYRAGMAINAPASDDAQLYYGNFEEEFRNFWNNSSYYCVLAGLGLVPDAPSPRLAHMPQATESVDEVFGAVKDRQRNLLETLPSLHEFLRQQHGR

In general, Km refers to the concentration of substrate that gives half-maximal velocity. Consider `C=C(CCC(=O)O)c1ccc(OC)cc1` [compound 1, 4-methoxyphenyl-4-pentenoic acid], for which the Km came out at 470 µM.
